Data reported in PubChem BioAssay (NCI).
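Interpolation was linear, between the two tested concentrations surrounding the appropriate level; five concentrations were tested over 48 hours in 96-well plates. TGI is the concentration that stops growth completely.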

Legend:
Test in all cases: growth of human tumour cells (NCI), 48 h
786-0 renal = test system: 786-0 renal
A498 renal = test system: A498 renal
A549 NSCLC = test system: A549 NSCLC
ACHN renal = test system: ACHN renal
BT-549 breast = test system: BT-549 breast
CAKI-1 renal = test system: CAKI-1 renal
CCRF-CEM leukemia = test system: CCRF-CEM leukemia
COLO 205 colon = test system: COLO 205 colon
DU-145 prostate = test system: DU-145 prostate
EKVX NSCLC = test system: EKVX NSCLC
HCC-2998 colon = test system: HCC-2998 colon
HCT-116 colon = test system: HCT-116 colon
HCT-15 colon = test system: HCT-15 colon
HL-60(TB) leukemia = test system: HL-60(TB) leukemia
HOP-62 NSCLC = test system: HOP-62 NSCLC
HOP-92 NSCLC = test system: HOP-92 NSCLC
HS 578T breast = test system: HS 578T breast
HT29 colon = test system: HT29 colon
IGROV1 ovarian = test system: IGROV1 ovarian
K-562 leukemia = test system: K-562 leukemia
KM12 colon = test system: KM12 colon
LOX IMVI melanoma = test system: LOX IMVI melanoma
MALME-3M melanoma = test system: MALME-3M melanoma
MCF7 breast = test system: MCF7 breast
MDA-MB-231 breast = test system: MDA-MB-231 breast
MDA-MB-435 = test system: MDA-MB-435
MDA-N = test system: MDA-N
MOLT-4 leukemia = test system: MOLT-4 leukemia
NCI-H226 lung = test system: NCI-H226 lung
NCI-H23 lung = test system: NCI-H23 lung
NCI-H460 lung = test system: NCI-H460 lung
NCI-H522 lung = test system: NCI-H522 lung
NCI/ADR-RES ovarian = test system: NCI/ADR-RES ovarian
OVCAR-3 ovarian = test system: OVCAR-3 ovarian
OVCAR-4 ovarian = test system: OVCAR-4 ovarian
OVCAR-5 ovarian = test system: OVCAR-5 ovarian
OVCAR-8 ovarian = test system: OVCAR-8 ovarian
PC-3 prostate = test system: PC-3 prostate
RPMI-8226 leukemia = test system: RPMI-8226 leukemia
RXF 393 renal = test system: RXF 393 renal
SF-268 CNS = test system: SF-268 CNS
SF-295 CNS = test system: SF-295 CNS
SF-539 CNS = test system: SF-539 CNS
SK-MEL-2 melanoma = test system: SK-MEL-2 melanoma
SK-MEL-28 melanoma = test system: SK-MEL-28 melanoma
SK-MEL-5 melanoma = test system: SK-MEL-5 melanoma
SK-OV-3 ovarian = test system: SK-OV-3 ovarian
SN12C renal = test system: SN12C renal
SNB-19 CNS = test system: SNB-19 CNS
SNB-75 CNS = test system: SNB-75 CNS
SR leukemia = test system: SR leukemia
SW-620 colon = test system: SW-620 colon
T-47D breast = test system: T-47D breast
TK-10 renal = test system: TK-10 renal
U251 CNS = test system: U251 CNS
UACC-257 melanoma = test system: UACC-257 melanoma
UACC-62 melanoma = test system: UACC-62 melanoma
UO-31 renal = test system: UO-31 renal
M14 melanoma = test system: M14 melanoma

## CN(C)c1ccc(/C=C2\C[C@H]3[C@@H]4CCc5cc(OCCN6CCCC6)ccc5[C@H]4CC[C@]3(C)[C@H]2O)cc1
786-0 renal
  TGI: 5.05 µM
A498 renal
  TGI: 34.9 µM
A549 NSCLC
  TGI: 20.3 µM
ACHN renal
  TGI: 42.9 µM
BT-549 breast
  TGI: 31.1 µM
CAKI-1 renal
  TGI: 30 µM
CCRF-CEM leukemia
  TGI: 5.99 µM
COLO 205 colon
  TGI: 27.9 µM
DU-145 prostate
  TGI: 26.2 µM
EKVX NSCLC
  TGI: 41.8 µM
HCC-2998 colon
  TGI: 14.5 µM
HCT-116 colon
  TGI: 8.78 µM
HCT-15 colon
  TGI: > 100 µM
HL-60(TB) leukemia
  TGI: 43.3 µM
HOP-62 NSCLC
  TGI: 35.5 µM
HOP-92 NSCLC
  TGI: 24.7 µM
HS 578T breast
  TGI: > 61.9 µM
HT29 colon
  TGI: > 25.7 µM
IGROV1 ovarian
  TGI: 39.7 µM
K-562 leukemia
  TGI: > 37.5 µM
KM12 colon
  TGI: > 60.2 µM
LOX IMVI melanoma
  TGI: > 100 µM
MALME-3M melanoma
  TGI: > 30.2 µM
MCF7 breast
  TGI: 30.1 µM
MDA-MB-231 breast
  TGI: 16.4 µM
MDA-MB-435
  TGI: 39 µM
MDA-N
  TGI: 46.3 µM
MOLT-4 leukemia
  TGI: 46 µM
NCI-H226 lung
  TGI: 37.4 µM
NCI-H23 lung
  TGI: 31.4 µM
NCI-H460 lung
  TGI: 30.2 µM
NCI-H522 lung
  TGI: 7.69 µM
NCI/ADR-RES ovarian
  TGI: 53.6 µM
OVCAR-3 ovarian
  TGI: 30.9 µM
OVCAR-4 ovarian
  TGI: > 58.8 µM
OVCAR-5 ovarian
  TGI: 31.1 µM
OVCAR-8 ovarian
  TGI: 18.9 µM
PC-3 prostate
  TGI: 48.9 µM
RPMI-8226 leukemia
  TGI: > 63.8 µM
RXF 393 renal
  TGI: 33.9 µM
SF-268 CNS
  TGI: 61.7 µM
SF-295 CNS
  TGI: 30.4 µM
SF-539 CNS
  TGI: 22 µM
SK-MEL-2 melanoma
  TGI: 34.8 µM
SK-MEL-28 melanoma
  TGI: 11.9 µM
SK-MEL-5 melanoma
  TGI: 22.9 µM
SK-OV-3 ovarian
  TGI: 31.7 µM
SN12C renal
  TGI: 47.4 µM
SNB-19 CNS
  TGI: 46.1 µM
SNB-75 CNS
  TGI: 28 µM
SR leukemia
  TGI: 10.2 µM
SW-620 colon
  TGI: 18.6 µM
T-47D breast
  TGI: 47.5 µM
TK-10 renal
  TGI: 11.6 µM
U251 CNS
  TGI: 17.6 µM
UACC-257 melanoma
  TGI: 19.5 µM
UACC-62 melanoma
  TGI: 39.5 µM
UO-31 renal
  TGI: 16.8 µM

## O=C(NCc1ccccc1)c1cc2ccccc2oc1=Nc1ccccc1F
786-0 renal
  TGI: 24.1 µM
A498 renal
  TGI: > 100 µM
A549 NSCLC
  TGI: 88.7 µM
ACHN renal
  TGI: 58.3 µM
BT-549 breast
  TGI: > 100 µM
CAKI-1 renal
  TGI: 27.9 µM
CCRF-CEM leukemia
  TGI: > 100 µM
COLO 205 colon
  TGI: 74.4 µM
DU-145 prostate
  TGI: > 100 µM
EKVX NSCLC
  TGI: > 100 µM
HCC-2998 colon
  TGI: 61.5 µM
HCT-116 colon
  TGI: > 100 µM
HCT-15 colon
  TGI: > 100 µM
HL-60(TB) leukemia
  TGI: > 100 µM
HOP-62 NSCLC
  TGI: 39.8 µM
HOP-92 NSCLC
  TGI: > 100 µM
HS 578T breast
  TGI: > 100 µM
HT29 colon
  TGI: > 100 µM
IGROV1 ovarian
  TGI: > 100 µM
K-562 leukemia
  TGI: > 100 µM
KM12 colon
  TGI: > 100 µM
LOX IMVI melanoma
  TGI: 37.3 µM
M14 melanoma
  TGI: > 100 µM
MALME-3M melanoma
  TGI: > 100 µM
MCF7 breast
  TGI: > 100 µM
MDA-MB-231 breast
  TGI: 47.3 µM
MDA-MB-435
  TGI: > 100 µM
MDA-N
  TGI: > 100 µM
MOLT-4 leukemia
  TGI: > 100 µM
NCI-H226 lung
  TGI: 92.2 µM
NCI-H23 lung
  TGI: 57.5 µM
NCI-H460 lung
  TGI: > 100 µM
NCI-H522 lung
  TGI: > 100 µM
NCI/ADR-RES ovarian
  TGI: > 100 µM
OVCAR-3 ovarian
  TGI: > 100 µM
OVCAR-4 ovarian
  TGI: 76.7 µM
OVCAR-5 ovarian
  TGI: > 100 µM
OVCAR-8 ovarian
  TGI: 31.2 µM
PC-3 prostate
  TGI: > 100 µM
RPMI-8226 leukemia
  TGI: > 100 µM
RXF 393 renal
  TGI: 84.5 µM
SF-268 CNS
  TGI: > 100 µM
SF-295 CNS
  TGI: > 100 µM
SK-MEL-2 melanoma
  TGI: > 100 µM
SK-MEL-28 melanoma
  TGI: > 100 µM
SK-MEL-5 melanoma
  TGI: 51.9 µM
SK-OV-3 ovarian
  TGI: 47.5 µM
SN12C renal
  TGI: 96.3 µM
SNB-19 CNS
  TGI: > 100 µM
SNB-75 CNS
  TGI: 45.5 µM
SR leukemia
  TGI: > 100 µM
SW-620 colon
  TGI: > 100 µM
T-47D breast
  TGI: > 100 µM
TK-10 renal
  TGI: 36.7 µM
U251 CNS
  TGI: > 100 µM
UACC-257 melanoma
  TGI: > 100 µM
UACC-62 melanoma
  TGI: > 100 µM
UO-31 renal
  TGI: 36.1 µM
